The source of these data is ChEMBL document CHEMBL1275552, “In vitro activities at pH 5.0 and pH 7.0 and in vivo efficacy of flucytosine against Aspergillus fumigatus” (Antimicrob Agents Chemother, 2008).

≈ marks a conversion by molar mass, not a printed value. Calls of active or inactive are those of the source. Bounds are passed on as bounds.

In one data set the test system is Aspergillus sp. Description: Antifungal activity against Aspergillus sp. by broth microdilution method. Type of data set: functional. In general terms: Dilution methods test growth across graded concentrations, often in twofold steps.
For data set [1], the system named is Aspergillus fumigatus. The data set can be described thus: Antifungal activity against Aspergillus fumigatus at pH 7.0 by broth microdilution method. Type of data set: functional.
Data set [2] concerns Aspergillus fumigatus. The data set can be described thus: Antifungal activity against Aspergillus fumigatus at pH 5.0 by broth microdilution method. Format: functional.
Data set [3] relates to Aspergillus fumigatus. Description: Antifungal activity against flucytosine-susceptible Aspergillus fumigatus isolate AZN 58 infected in CD-1 mouse assessed as prolongation of survival at 100 mg/kg administered every 6 hrs. Type of data set: functional, organism-based. Also noted: dose 100 mg/kg.
Data set [4] has as its system Aspergillus fumigatus. Description: Antifungal activity against flucytosine-susceptible Aspergillus fumigatus isolate AZN 58 infected in CD-1 mouse assessed as prolongation of survival at 200 mg/kg administered every 6 hrs. Format: functional, organism-based. On the set-up: dose 200 mg/kg.
The subject of data set [5] is Aspergillus fumigatus. The data set can be described thus: Antifungal activity against flucytosine-susceptible Aspergillus fumigatus isolate AZN 58 infected in CD-1 mouse assessed as prolongation of survival at 200 mg/kg administered every 12 hrs. Format: functional, organism-based. Also noted: dose 200 mg/kg.
In data set [6] the test system is Aspergillus fumigatus. Description: Antifungal activity against flucytosine-susceptible Aspergillus fumigatus isolate AZN 58 infected in CD-1 mouse assessed as prolongation of survival at 100 mg/kg administered every 12 hrs. Format: functional, organism-based. Also noted: dose 100 mg/kg.
A short description of data set [7]: Half life in CD-1 mouse at 800 mg/kg. Format: ADME, organism-based. On the set-up: dose 800 mg/kg. The conditions noted are these: in vivo.
Data set [8] in a line: Half life in human. Type of data set: ADME, organism-based. The conditions noted are these: in vivo.
The subject of data set [9] is Aspergillus fumigatus. Description: Antifungal activity against flucytosine-resistant Aspergillus fumigatus isolate AZN 58 infected in CD-1 mouse at 100 mg/kg administered every 6 hrs. On the set-up: dose 100 mg/kg. Format: functional, organism-based.
The test system of data set [10] is Aspergillus fumigatus. Description: Antifungal activity against flucytosine-resistant Aspergillus fumigatus isolate AZN 58 infected in CD-1 mouse at 200 mg/kg administered every 6 hrs. On the set-up: dose 200 mg/kg. Type of data set: functional, organism-based.
Data set [11] relates to Aspergillus fumigatus. Description: Antifungal activity against flucytosine-resistant Aspergillus fumigatus isolate AZN 58 infected in CD-1 mouse at 200 mg/kg administered every 12 hrs. Format: functional, organism-based. Also noted: dose 200 mg/kg.
The subject of data set [12] is Aspergillus fumigatus. The data set can be described thus: Antifungal activity against flucytosine-resistant Aspergillus fumigatus isolate AZN 58 infected in CD-1 mouse at 100 mg/kg administered every 12 hrs. Format: functional, organism-based. Also noted: dose 100 mg/kg.

The MIC is the lowest concentration found to suppress growth. Lower therefore signals inhibition by little substance. One may read the half-life as the time needed for the level to fall by half in the phase considered. Low readings indicate fast loss, high ones slow loss. Turning to `Nc1nc(=O)[nH]cc1F` [FLUCYTOSINE], the MIC against Aspergillus sp. was above 64 µg/mL; in the data set with Aspergillus fumigatus [1], 128 µg/mL (≈ 992 µM); with Aspergillus fumigatus [2] it was 0.125 µg/mL (≈ 0.968 µM). Moreover, the outcome with Aspergillus fumigatus [3], with Aspergillus fumigatus [4], in the data set with Aspergillus fumigatus [5] and with Aspergillus fumigatus [6] was Active. In addition, the figures for the half-life in [7] and in data set [8] were 0.5 h and 2.5 h, respectively. Further, the result with Aspergillus fumigatus [9], in the data set with Aspergillus fumigatus [10], in the data set with Aspergillus fumigatus [11] and in the data set on Aspergillus fumigatus [12] was inactive.
